Molecules are shown by their SMILES. The source made the active and inactive calls. No cut-off for these calls is given here.

The term IC50 denotes the concentration that gives 50% inhibition.

Data set [1] has as its system Mus musculus. In words: Upregulation of CDK1 expression in nude mouse xenografted with human SW1990 cells at 45 mg/kg, ip measured after 4 days by Q-PCR analysis. Particulars: time 4.0 day. The format is functional, organism-based.
The subject of data set [2] is Mus musculus. In words: Upregulation of CCND1 expression in nude mouse xenografted with human SW1990 cells at 45 mg/kg, ip measured after 4 days by Q-PCR analysis. Particulars: time 4.0 day. The format is functional, organism-based.
The nature of data set [3]: Toxicity in nude mouse xenografted with human SW1990 cells assessed as spleen damage at 45 mg/kg, ip administered for 28 days by H and E staining based fluorescence microscopic analysis. The following applies: in vivo, 672 h, time 28 day. The format is organism-based. On the technique in general: A xenograft is tissue or cells of one species grown in another, often human tumour cells in immunodeficient mice.

Data set [4] can be described thus: Toxicity in nude mouse xenografted with human SW1990 cells assessed as heart damage at 45 mg/kg, ip administered for 28 days by H and E staining based fluorescence microscopic analysis. The format is organism-based. The following applies: in vivo, 672 h, time 28 day.
In data set [5] the test system is SW1990. Kind of data set: Effect on HEXIM1 gene expression in human SW1990 cells at 6 uM by Q-PCR analysis. The format is functional, cell-based.
Data set [6] relates to Mus musculus. Kind of data set: Upregulation of CDC25B expression in nude mouse xenografted with human SW1990 cells at 45 mg/kg, ip measured after 4 days by Western blot analysis. The following applies: time 4.0 day. The format is functional, organism-based.
Data set [7] concerns SW1990. Kind of data set: Effect on BRCA2 gene expression in human SW1990 cells at 1 uM in presence of Olaparib by Q-PCR analysis. The format is functional, cell-based.
Data set [8] has as its system SW1990. In words: Effect on CCNB1 gene expression in human SW1990 cells at 1 uM in presence of Olaparib by Q-PCR analysis. The format is functional, cell-based.
Data set [9] has as its system SW1990. Kind of data set: Effect on ALDH1A1 gene expression in human SW1990 cells at 4 uM by Q-PCR analysis. The format is functional, cell-based.
For data set [10], the system named is SW1990. In words: Effect on c-Myc gene expression in human SW1990 cells at 1 uM in presence of Olaparib by Q-PCR analysis. The format is functional, cell-based.
Data set [11] can be described thus: Toxicity in nude mouse xenografted with human SW1990 cells assessed as heart damage at 15 mg/kg, ip administered for 28 days in presence of 45 mg/kg Olaparib by H and E staining based fluorescence microscopic analysis. The format is organism-based. Particulars: in vivo, 672 h, time 28 day.
Data set [12] is described as follows: Toxicity in nude mouse xenografted with human SW1990 cells assessed as liver damage at 15 mg/kg, ip administered for 28 days in presence of 45 mg/kg Olaparib by H and E staining based fluorescence microscopic analysis. The following applies: in vivo, 672 h, time 28 day. The format is organism-based.
In data set [13] the test system is SW1990. In words: Effect on BRCA1 gene expression in human SW1990 cells at 4 uM by Q-PCR analysis. The format is functional, cell-based.
In data set [14] the test system is SW1990. Kind of data set: Induction of apoptosis in human SW1990 cells assessed as late apoptotic cells at 1 uM measured after 4 days in presence of 3 uM Olaparib by Annexin V-FITC and propidium iodide staining based flow cytometry (reference value: 7.23%). The format is functional. Particulars: time 4 day. (In flow cytometry, cells or beads pass a laser one at a time.)

Data set [15] concerns SW1990. In words: Induction of apoptosis in human SW1990 cells assessed as early apoptotic cells at 4 uM measured after 4 days by Annexin V-FITC and propidium iodide staining based flow cytometry (reference value: 1.62%). The format is functional. Particulars: time 4 day.
The subject of data set [16] is SW1990. In words: Induction of cell cycle arrest in human SW1990 cells assessed as accumulation of cells at S phase at 1 uM incubated for 4 days in presence of 3 uM Olaparib by propidium iodide staining based flow cytometry (reference value: 29.32%). The format is functional. Particulars: time 4 day.
In data set [17] the test system is SW1990. Kind of data set: Induction of apoptosis in human SW1990 cells assessed as late apoptotic cells at 2 uM measured after 4 days by Annexin V-FITC and propidium iodide staining based flow cytometry (reference value: 7.23%). The format is functional. The following applies: time 4 day.
The test system of data set [18] is Mus musculus. In words: Inhibition of CDK1 expression in nude mouse xenografted with human SW1990 cells at 30 mg/kg, ip measured after 4 days by Q-PCR analysis. The format is functional, organism-based. The following applies: time 4.0 day.
The test system of data set [19] is Mus musculus. In words: Inhibition of CCNB1 expression in nude mouse xenografted with human SW1990 cells at 30 mg/kg, ip measured after 4 days by Western blot analysis. The format is functional, organism-based. The following applies: time 4.0 day.
The test system of data set [20] is SW1990. In words: Antiproliferative activity against human SW1990 cells assessed as inhibition of cell growth measured after 4 days by MTT assay. Particulars: SW1990, 96 h. The format is functional, cell-based.
Data set [21] concerns SW1990. Kind of data set: Inhibition of homologous recombinant repair in human SW1990 cells assessed as reversal of Olaparib-induced HEXIM1 expression at 1 to 2 uM after 4 days by Western blot analysis. The format is functional, cell-based. The following applies: dose 1-2 µM, time 4.0 day. (In western blotting, separated proteins are transferred to a membrane and probed.)

Data set [22] concerns Mus musculus. In words: Inhibition of homologous recombinant repair in nude mouse xenografted with human SW1990 cells assessed as reversal of olaparib-induced FOXO1 expression at 30 mg/kg, ip measured after 4 days by Western blot analysis. The format is functional, organism-based. The following applies: time 4.0 day.
Data set [23] concerns SW1990. In words: Effect on E2F2 gene expression in human SW1990 cells at 1 to 2 uM by Q-PCR analysis. The format is functional, cell-based. The following applies: dose 1-2 µM.
Data set [24] relates to SW1990. In words: Inhibition of homologous recombinant repair in human SW1990 cells assessed as reversal of Olaparib-induced TOPBP1 expression at 1 to 2 uM after 4 days by Western blot analysis. The format is functional, cell-based. Particulars: dose 1-2 µM, time 4.0 day.
In data set [25] the test system is SW1990. Kind of data set: Inhibition of CCNB1 protein expression in human SW1990 cells at 1 to 2 uM measured after 4 days by Western blot analysis. The following applies: dose 1-2 µM, time 4.0 day. The format is functional, cell-based.
The test system of data set [26] is SW1990. Kind of data set: Inhibition of CDK6 protein expression in human SW1990 cells at 1 to 2 uM measured after 4 days by Western blot analysis. The format is functional, cell-based. Particulars: dose 1-2 µM, time 4.0 day.

For `O=C(c1cc(Cc2n[nH]c(=O)c3ccccc23)ccc1F)N1CCN(C(=O)C2CC2)CC1` [OLAPARIB], the outcome in the data set on Mus musculus [1], in the data set on Mus musculus [2], in the data set with SW1990 [5] and in the data set on Mus musculus [6] was Active. Besides, the Activity result in [3] and in data set [4] was “Non-Toxic” in each case.

`Cc1sc2c(c1C)C(c1ccc(Cl)cc1)=N[C@@H](CC(=O)OC(C)(C)C)c1nnc(C)n1-2`: the outcome in the data set with SW1990 [7], in the data set on SW1990 [8], in the data set on SW1990 [9], in the data set with SW1990 [10] and in the data set on SW1990 [13] was Active. For the same compound, the Activity entry in [11] is “Non-Toxic”; in [12], “Non-Toxic”; in the data set with SW1990 [14] it was 34.5%; in the data set on SW1990 [15] it was 1.73%; with SW1990 [16], 19.33%.

As to `Cc1noc(C)c1-c1ccc2c(c1)C(c1ccccc1)N(Cc1nc3c(C(N)=O)cccc3[nH]1)C(=O)N2C` (stereo unspecified), the Activity in the data set on SW1990 [17] stood at 39.5%. Further, the inhibition result with Mus musculus [18], in the data set on Mus musculus [19], in the data set on SW1990 [21], in the data set with Mus musculus [22], with SW1990 [24] and in the data set on SW1990 [25] was “Active” in each case. Besides, in the data set on SW1990 [26], the inhibition entry is “Active”. For the same compound, the IC50 with SW1990 [20] stood at 1.34 µM. Moreover, the outcome in the data set with SW1990 [23] was Active.

The values above are taken from ChEMBL document CHEMBL5131471, “Design, synthesis and mechanism studies of novel dual PARP1/BRD4 inhibitors against pancreatic cancer” (Eur J Med Chem, 2022).
